The numbers were not newly measured in patent publication US20170266090A1, “ANTIMICROBIAL COMPOSITIONS THAT ARE DERMATOLOGICALLY NON-DRYING” (Marvel Technologies USA, LLC, priority 2016, published 2017), which cites them from elsewhere.

The conditions of the data set: background statement, no source given.

Take `CCO` [Ethanol]: the Drying time entry is “eight to thirteen”.
